“And” between values parts separate entries of the source, which are not always exact repeats. Equal entries are not always repeated. “Also recorded” adds a separate entry of the source. Where two headings read alike, the source gives them in different places.
Tests used:
[1] = Water solubility noted on drug preparation for injection; format: physicochemical; details: for Preparation: state of the injection preparation: white solid + 3% EtOH + 1% POE + 0.25% NaHCO3 + saline, pH = 8.0
Procedure: (§1) Compounds as their sodium salts were prepared in a 1% sodium bicarbonate solution, H2O or phosphate buffered saline (PBS), with pH adjusted to 7.0 to 7.5 with HCl, and administered intravenously (IV) or orally (PO), at injection volumes of 0.2 mL per injection.

[2] = system: Pancreatic Ductal Adenocarcinoma 03;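 also: mice carrying bilateral subcutaneous tumors, with tumor weight estimated from two-dimensional caliper readings taken twice a week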
Source text: Pancreatic ductal adenocarcinoma-03, mammary adenocarcinoma-16/C, mammary adenocarcinoma-17/Adr, and human melanoma LOX were used in the studies. Tumors were maintained in the mouse strain of origin (C57B1/6 for Panc-03 and C3H for the mammary tumors). Balb/c SCID mice (B and T cell deficient) were used for tumor maintenance and chemotherapy trials involving the human melanoma LOX. Tumors were transplanted into the appropriate F1 hybrid (B6D2F1=C57B 1/6 female× DBA/2 male) or the strain of origin for the chemotherapy trials. Individual mouse body weights for each experiment were within 5 grams, and all mice were over 17 grams at the start of therapy. The mice were supplied food and water ad libitum.
Animals were pooled, implanted subcutaneously with 30 to 60 mg tumor fragments by a 12 gauge trocar on day 0, and again pooled before unselective distribution to the various treatment and control groups. For early stage treatment, chemotherapy was started within 1 to 3 days after tumor implantation while the number of cells was relatively small (10^7 to 10^8 cells). For upstaged or advanced staged trials, the tumors were allowed to grow for five or more days before treatment was started. Tumors were measured with a caliper twice weekly. […] Tumor weights are estimated from two-dimensional measurements:
Tumor weight (in mg)=(a×b^2)/2, where a and b are the tumor length and width in (mm), respectively.
a) Tumor growth delay (T−C value), where T is the median time (in days) required for the treatment group tumors to reach a predetermined size (e.g., 1,000 mg), and C is the median time (in days) for the control group tumors to reach the same size. Tumor-free survivors were are excluded from these calculations (cures are tabulated separately). This value is an important criterion of anti-tumor effectiveness because it allows the quantification of tumor cell kill.
b) Calculation of tumor cell kill for subcutaneously (SC) growing tumors. […] The conversion of the T−C values to log10 cell kill is possible because the Td of tumors re-growing post treatment (Rx) approximates the Td values of the tumors in untreated control mice.
It should be noted that an activity rating of +++ to ++++ is needed to effect partial regression (PR) or complete regression (CR) of 100 to 300 mg size masses of most transplanted solid tumors of mice. Thus, an activity rating of + or ++ would not be scored as active by usual clinical criteria. A PR is a reduction in tumor mass to less than 50% of pretreatment size. A CR is a reduction in tumor mass to below palpable size (i.e., reduction to zero detectable mass).
The T/C value in percent is an indication of anti-tumor effectiveness: A T/C=0% means no tumor growth. A T/C=100% means no anti-tumor activity, i.e., the treated and control tumors grew equally. […] A T/C value<10% is considered to indicate highly significant anti-tumor activity, and is the level used by NCI to justify a clinical trial if toxicity, formulation, and certain other requirements are met (termed DN-2 level activity).
as §1
Thus, for this test, all compounds initially were to be given IP, in an attempt to identify a suitable alternate route of administration.

[3] = system: Pancreatic Ductal Adenocarcinoma 03; test: Evaluation against early stage Pancreatic Ductal Adenocarcinoma 03, IP route, C57 females (Table 9); format: in vivo
Procedure: The IP route was used for two reasons. […] This is approximately 40% of the dose given IV with the racemic mix (60 mg/kg, see Table 7).

[4] = system: Pancreatic Ductal Adenocarcinoma #03; test: Evaluation against early stage Pancreatic Ductal Adenocarcinoma #03, BD1 female mice (Table 2); details: PO
[5] = Cage 2, IP, 135 mg/kg day 3 only
[6] = Cage 3, IP, 80 mg/kg day 3 only
[7] = Cage 4, 50 mg/kg IP day 3, then IV Q2d×7 through day 15, total 455 mg/kg
[8] = IP d3 then IV Q2d: 5–15, total dosage 455 mg/kg, BDF1 males
[9] = IP, d 3, total dosage 80 mg/kg, BDF1 males
[10] = IP, d 3, total dosage 135 mg/kg, BDF1 males
[11] = Cage 2, BID3–5, total 450 mg/kg
[12] = Cage 3, BID3–7, total 450 mg/kg
[13] = Cage 8, 135 mg/kg IP day 3, then SC days 5, 7, 11, 13, 15, total 615 mg/kg
[14] = Cage 9, IP, 80 mg/kg/inj days 3, 5, 7, 11, 13, 15, total 480 mg/kg
[15] = Cage 10, IP, 50 mg/kg/inj Q2d×7 from day 3, total 350 mg/kg
[16] = IP d 3 then SC d5, 7, 11, 13, 15, total dosage 615 mg/kg, BDF1 males
[17] = IP, Q2d: 3–15, total dosage 350 mg/kg, BDF1 males
[18] = IP, d3, 5, 7, 11, 13, 15, total dosage 480 mg/kg, BDF1 males
[19] = Cage 3, BID3–7, total 2,300 mg/kg
[20] = Cage 4, BID 3, 4, total 480 mg/kg

## CC(Oc1ccc(Oc2cnc3ccc(Cl)cc3n2)cc1)C(=O)NCC(=O)O [Compound 14i (R), {2-{4-(7-Chloro-quinoxalin-2-yloxy)-phenoxy}propionylamino}acetic acid]
[1]
  water solubility: good water solubility
  Preparation: state of the injection preparation: Compound 14i (R): white solid + 3% EtOH + 1% POE + 0.25% NaHCO3 + saline → solution (pH = 8.0); 0.5 ml/mouse/inj, IP; 0.2 ml/mouse/inj, IV.
[2]; [5]
  Activity Rating: + (0.7–1.2)
  T/C: 10%
  log cell kill: 1.1
[2]; [6]
  Activity Rating: + (0.7–1.2)
  T/C: 37%
  day of death: 4 days
  deaths: one injection death
  log kill: 0.7
[2]; [7]
  Activity Rating: ++ (1.3–1.9)
  T/C: 10% and 8%
  day of full weight recovery: ≤ 11 days
  day of weight loss nadir: 7 days
  log kill: 1.6
[2]; [8]
  Comments (Active/Inactive): Active
  Comments (activity rating): (++) (1.3–1.9)
  Drug Death: 0/5
  Log Cell Kill: 1.6
  Median Tumor Burden in mg on d17: 151 mg
  T-C: 11 days
  T/C %: 8%
  Time to 1000 mg: 26 days
  Tumor Free on 148: 0/5
[2]; [9]
  Comments (Active/Inactive): Active
  Comments (activity rating): (+) (0.7–1.2)
  Drug Death: 1/5
  Drug Death (day of death): (d4)
  Log Cell Kill: 0.7
  Median Tumor Burden in mg on d17: 675 mg
  T-C: 5 days
  T/C %: 37%
  Time to 1000 mg: 20 days
  Tumor Free on 148: 0/5
[2]; [10]
  Comments (Active/Inactive): Active
  Comments (activity rating): (+) (0.7–1.2)
  Drug Death: 0/5
  Log Cell Kill: 1.1
  Median Tumor Burden in mg on d17: 189 mg
  T-C: 7.5 days
  T/C %: 10%
  Time to 1000 mg: 22.5 days
  Tumor Free on 148: 0/5
[2]; mouse, in vivo
  Day of Wt. Loss Nadir: 7 days and 4 days
[2]; mouse, in vivo, ip, 135 mg/kg
  day of full weight recovery: ≤ 9 days
  day of weight loss nadir: 7 days
  toxicity observations: prolonged pain response

## CC(Oc1ccc(Oc2ccc3ccc(Br)cc3n2)cc1)C(=O)NCCS(=O)(=O)[O-].[Na+] [Compound 14g (R), Sodium (2-(4-(7-bromo-2-quinolinyl)oxy)phenoxy) propionylamino ethanesulfonate]
[3]; [11]
  Day of Wt. Loss Nadir: 9 days
  Drug Death (day of death): one drug death and 1/5
  Log Cell Kill: 1.52
  Mean Body Wt. Loss in g/mouse: −4.4 g/mouse
  Median Tumor Burden in mg on d14 (range): 0 mg
  T-C: 10.75 days
  T/C %: 0%
  Time to 1000 mg in days (range): 24.75 days
  Tumor Free on d31: 0/5
  day of body weight recovery: ≤ 17 days
  toxicity observations: increased urinary output and a sunken appearance
[3]; [12]
  Day of Wt. Loss Nadir: 9 days
  Drug Death (day of death): 0/5
  Log Cell Kill: 1.72
  Mean Body Wt. Loss in g/mouse: −1.2 g/mouse
  Median Tumor Burden in mg on d14 (range): 126 mg
  T-C: 12 days
  T/C %: 12.6%
  Time to 1000 mg in days (range): 26 days
  Tumor Free on d31: 0/5
[1]
  water solubility: Low water solubility limits
[1]; expressed as injectable dose
  solubility limit: 25 mg/kg (0.2 ml/inj)

## CC(Oc1ccc(Oc2ccc3ccc(Br)cc3n2)cc1)C(=O)NCC(=O)O [Compound 14h (R), {2-[4-(7-Bromo-quinolin-2-yloxy)-phenoxy]-propionylamino}acetic acid]
[1]
  water solubility: Low water solubility limits; also recorded: much lower water solubility
  Preparation: state of the injection preparation: Compound 14h (R): white solid + 3% EtOH + 1% POE + 0.25% NaHCO3 + saline → suspension (pH = 8.0); 0.5 ml/mouse/inj, IP; 0.2 ml/mouse/inj, SC.
[2]; [13]
  Activity Rating: ++ (1.3–1.9)
  T/C: 3%
  log cell kill: 1.9
[2]; [14]
  T/C: 6%
  log cell kill: 1.7
[2]; [15]
  Activity Rating: + (0.7–1.2)
  T/C: 16.5%
  log kill: 1.0
[2]; [16]
  Comments (Active/Inactive): Inactive
  Comments (activity rating): (++) (1.3–1.9)
  Drug Death: 0/5
  Log Cell Kill: 1.9
  Median Tumor Burden in mg on d17: 63 mg
  T-C: 13 days
  T/C %: 3%
  Time to 1000 mg: 28 days
  Tumor Free on 148: 0/5
[2]; [17]
  Comments (Active/Inactive): Active
  Comments (activity rating): (+) (0.7–1.2)
  Drug Death: 0/5
  Log Cell Kill: 1.0
  Median Tumor Burden in mg on d17: 304 mg
  T-C: 7 days
  T/C %: 16.5%
  Time to 1000 mg: 22 days
  Tumor Free on 148: 0/5
[2]; [18]
  Comments (Active/Inactive): Active
  Comments (activity rating): (++) (1.3–1.9)
  Drug Death: 0/5
  Log Cell Kill: 1.7
  Median Tumor Burden in mg on d17: 108 mg
  T-C: 12 days
  T/C %: 6%
  Time to 1000 mg: 27 days
  Tumor Free on 148: 0/5
[2]; mouse, in vivo
  Day of Wt. Loss Nadir: 9 days and 10 days and 8 days
  day of full weight recovery: 20 days and 15 days
  day of weight loss nadir: 9 days and 10 days and 8 days
  weight loss nadir: −13.3%

## CNC(=O)C(C)Oc1ccc(Oc2cnc3ccc(Cl)cc3n2)cc1 (stereo not drawn) [Compound 14b]
[4]; [19]
  Day of Wt. Loss Nadir: 8 days
  Drug Deaths (day of death): 0/5
  Growth Delay: 7.0 days
  Log Cell Kill: 0.8
  Mean Body Wt. Loss (g/mouse): −2.0 g/mouse
  Median Tumor Burden in mg on d18 (Range): 671 mg
  T/C %: 39%
  Time in days to 1000 mg (range): 21 days
  Tumor Free on d 154: 0/5
  day of full body weight recovery: 10 days
[4]; [20]
  % Body Wt. Loss: 4%
  Day of Wt. Loss Nadir: 5 days
  Drug Deaths (day of death): 0/5
  Growth Delay: 2.0 days
  Log Cell Kill: 0.2
  Mean Body Wt. Loss (g/mouse): −0.8 g/mouse
  Median Tumor Burden in mg on d18 (Range): 1266 mg
  T/C %: 74%
  Time in days to 1000 mg (range): 15 days
  Tumor Free on d 154: 0/5
[4]; Cage 5, BID 3, total 108 mg/kg
  % Body Wt. Loss: 0%
  Day of Wt. Loss Nadir: 5 days
  Drug Deaths (day of death): 0/5
  Growth Delay: 2.7 days
  Log Cell Kill: 0.3
  Mean Body Wt. Loss (g/mouse): +0.4 g/mouse
  Median Tumor Burden in mg on d18 (Range): 1312 mg
  T/C %: 77%
  Time in days to 1000 mg (range): 15.7 days
  Tumor Free on d 154: 0/5
[1]
  water solubility: water insoluble

Reference: US7109341B2, “Therapeutic amides” (Wayne State University, priority 2002, dated 2006)
